Reference: publication PMC6099663, “Structure–Activity Relationship of the Tyrosinase Inhibitors Kuwanon G, Mulberrofuran G, and Albanol B from Morus Species: A Kinetics and Molecular Docking Study” (Molecules : A Journal of Synthetic Chemistry and Natural …, 2018)
Where two headings read alike, the source gives them in different places.

Assays:
[1] = system: tyrosinase; settings: cited from earlier work
[2] = molecular target: T1, mushroom tyrosinase (Agaricus bisporus, UniProt C7FF04); test: Mushroom tyrosinase inhibitory assay, L-tyrosine oxidation (monophenolase activity); format: biochemical; parameters: purchased Sigma-Aldrich Co. (St. Louis, MO, USA)
Description: (§1) Briefly, 10 µL of a specified concentration of each sample solution (1–500 µg/mL) in 10% dimethyl sulfoxide and 20 µL of mushroom tyrosinase (1000 Units/mL) in a 50 mM phosphate buffer (pH 6.5) were added to 170 µL of an assay mixture in a 96-well microplate. […] The reaction mixtures were incubated at 25 °C for 15 s. The absorbance of the mixture at 490 nm was measured using a microplate reader. […] One unit (U) of enzymatic activity referred to the amount of an enzyme capable of converting 1 µM of the L-tyrosine/L-DOPA reaction mixture within 1 min at 280 nm under the specific conditions (25 °C, optimum conditions).

[3] = molecular target: T1, mushroom tyrosinase; test: Mushroom tyrosinase inhibitory assay, L-DOPA oxidation (diphenolase activity); format: biochemical; parameters: purchased Sigma-Aldrich Co. (St. Louis, MO, USA); settings: L-DOPA substrate (diphenolase), 25 °C, pH 6.5, mean ± SEM of triplicate
Description: as §1

[4] = molecular target: T1, mushroom tyrosinase; test: Enzyme kinetic analysis with tyrosinase (Lineweaver-Burk and Dixon plots, L-tyrosine substrate); format: biochemical; settings: for Inhibition Mode: Lineweaver–Burk plot, L-tyrosine substrate (monophenolase)
Description: Kinetic analysis was employed to verify the inhibitory activity of the active compounds and identify the type of inhibition. KG and MG were potent tyrosinase inhibitors as analyzed by Lineweaver–Burk and Dixon plots (Figure 3 and Figure 4). Different concentrations of the substrate (L-tyrosine, 1.0, 0.5, and 0.25 mM) along with the various concentrations of KG (10, 50, and 100 µM) and MG ([…]) were analyzed. […] The Ki values represent the concentrations required to form an enzyme inhibitor complex, so inhibitors with lower Ki values indicate greater tyrosinase inhibition activity for the development of prophylactic and therapeutic agents.
We observed the sample activity by decreasing the L-tyrosine (1.0, 0.5, and 0.25 mM) substrate concentration to determine the tyrosinase inhibitory mechanism. The reaction mixture consisted of a 20 µL test sample at the following test concentrations: 1.6, 8, and 16 µM for MG; 10, 50, and 100 µM for KG. Tyrosinase inhibition was determined at various concentrations of L-tyrosine substrate (1.0, 0.5, and 0.25 mM) in the absence or presence of the test compound concentrations (1.6, 8, and 16 µM for MG; 10, 50, and 100 µM for KG) using Lineweaver-Burk double reciprocal plots that determine enzyme kinetic parameters including Km and Vmax. The enzymatic procedures consisted of the previously described tyrosinase assay methods. The inhibition constant (Ki) was determined from the interpretation of Dixon plots.

[5] = molecular target: mushroom tyrosinase; parameters: method as in ref 12 (Zheng et al.); settings: L-tyrosine substrate; ref 12 (Zheng et al.); read-out: IC50, L-tyrosine oxidation (monophenolase); cited from earlier work
[6] = molecular target: mushroom tyrosinase; parameters: method as in ref 13 (Chaita et al.); settings: L-DOPA substrate; ref 13 (Chaita et al.); read-out: IC50, mushroom tyrosinase via the L-DOPA pathway; cited from earlier work
[7] = system: B16F10 cells; parameters: method as in PMID 25819153; settings: 150 µM; cited from earlier work
[8] = L-tyrosine substrate (monophenolase), 25 °C, pH 6.5, mean ± SEM of triplicate, read-out: IC50 (μM) Value L-Tyrosine
[9] = read-out: IC50 (μM) Value L-DOPA

T1 sequence (C7FF04 2-392): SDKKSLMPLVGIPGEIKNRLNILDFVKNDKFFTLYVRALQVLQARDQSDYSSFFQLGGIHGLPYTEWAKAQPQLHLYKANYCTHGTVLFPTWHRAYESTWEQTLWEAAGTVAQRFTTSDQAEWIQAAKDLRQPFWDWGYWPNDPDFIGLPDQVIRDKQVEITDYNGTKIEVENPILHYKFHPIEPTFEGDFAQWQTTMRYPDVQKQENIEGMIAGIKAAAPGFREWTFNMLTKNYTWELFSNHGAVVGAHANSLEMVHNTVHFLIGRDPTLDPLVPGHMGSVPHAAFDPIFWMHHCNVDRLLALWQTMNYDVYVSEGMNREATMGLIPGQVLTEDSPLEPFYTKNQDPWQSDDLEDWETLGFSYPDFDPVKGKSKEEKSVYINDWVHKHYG

## O=C(O)/C=C/c1ccccc1 [Cinnamic acid]
[1]; interacted with secondary binding sites when catalytic pocket occupied with tropolone, ref 34 (Hassani et al.)
  inhibition type toward tyrosinase: mixed type inhibitor

## Cc1cc2c3c(c1)-c1c(O)cc(-c4cc5ccc(O)cc5o4)cc1OC3(c1ccc(O)cc1O)Oc1cc(O)ccc1-2 (centres unmarked) [Albanol B]
[2]; L-tyrosine substrate (monophenolase), 25 °C, pH 6.5, mean ± SEM of triplicate
  IC50 (μM) Value L-Tyrosine: inactive
[2]; [8]
  IC50: > 350 µM
[3]
  IC50 (μM) Value L-DOPA: inactive
[3]; [9]
  IC50: > 350 µM

## CC1=CCCCC1 [1-Methyl-1-cyclohexene, reference compound]
[2]; [8]
  IC50: > 1000 µM
[3]; [9]
  IC50: > 1000 µM

## CC1=C[C@H]2c3c(O)cc(-c4cc5ccc(O)cc5o4)cc3O[C@@]3(c4ccc(O)cc4O)Oc4cc(O)ccc4[C@H](C1)[C@@H]23 [Mulberrofuran G]
[4]; Dixon plot, L-tyrosine substrate, read-out: Inhibition Constant (Ki)
  Ki: 5.19 µM
[4]
  Inhibition Mode: Competitive
[5]
  IC50: 17.5 µM
[2]; [8]
  IC50: 6.35 ± 0.45 µM
[3]; [9]
  IC50: 106 µM

## O=c1cc(CO)occ1O [Kojic acid]
[1]
  inhibition type toward tyrosinase: selective competitive inhibitor

## CC(C)=CCc1c(-c2ccc(O)cc2O)oc2c(C3C=C(C)CC(c4ccc(O)cc4O)C3C(=O)c3ccc(O)cc3O)c(O)cc(O)c2c1=O (centres unmarked) [Kuwanon G]
[4]
  Ki: 18.7 µM
  Inhibition Mode: Competitive
[5]
  IC50: > 200 µM
[6]
  IC50: 27.2 µM
[2]
  IC50: 67.6 ± 2.11 µM
[3]; IC50 (μM) Value L-DOPA
  IC50: 44 µM

## C=C1CC/C=C(\C)CC[C@@H]2[C@@H]1CC2(C)C [β-caryophyllene]
[7]
  intracellular tyrosinase activity: decreased
